# Key:
# [1] = target: T1, PspA (SynPspA, PspA wild type, slr1188) (Synechocystis sp. PCC 6803, UniProt P74717); assay: cryo-EM structure of helical rods; type: binding; conditions: rods refolded with 2 mM ATP, 4 mM MgCl2; ADP modelled in weak density, incomplete occupancy; site near α3/α4 loop between four chains; 180, 200, 215, 235 Å rods
# T1 construct: gene im30; 28 kDa band
# [2] = target: T1, PspA (SynPspA, PspA wild type, slr1188); assay: inhibition of ATPase activity; type: biochemical; conditions: high concentration needed; against ATP hydrolysis; non-hydrolysable analogue
# [3] = target: T2, PspA (SynPspA, PspA wild type, slr1188) (Synechocystis sp. PCC 6803, UniProt P74717, R44K/E126Q/E179Q); assay: bound nucleotide by HPLC-MS/MS after washing; malachite-green ATPase; type: biochemical; conditions: 2 mM ATP, 4 mM MgCl2, 10 mM Tris-HCl pH 8.0, 37 °C, 24 h
# T2 construct: gene im30; 28 kDa band
# T2 sequence (P74717 entry or part of it R44K/E126Q/E179Q): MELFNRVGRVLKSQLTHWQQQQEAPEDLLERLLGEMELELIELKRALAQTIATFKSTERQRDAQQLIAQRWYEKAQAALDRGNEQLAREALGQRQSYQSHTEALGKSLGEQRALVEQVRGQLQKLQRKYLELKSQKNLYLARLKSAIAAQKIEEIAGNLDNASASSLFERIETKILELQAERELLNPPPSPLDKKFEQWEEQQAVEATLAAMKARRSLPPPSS
# [4] = target: T1, PspA (SynPspA, PspA wild type, slr1188); assay: malachite-green phosphate release; ADP-Glo; bound nucleotide by HPLC-MS/MS; type: biochemical; conditions: 2 mM ATP, 4 mM MgCl2, 10 mM Tris-HCl pH 8.0, 37 °C
# [5] = target: T3, PspA α1–α5 (Synechocystis sp. PCC 6803, UniProt P74717); assay: malachite-green phosphate release; ADP-Glo; type: biochemical; conditions: 2 mM ATP, 4 mM MgCl2, 10 mM Tris-HCl pH 8.0, 37 °C
# T3 construct: gene im30; helix α0 removed (amino acids 1-23 in Methods; 'first 22 amino acids' in Results); 25 kDa band
# T3 sequence (P74717 entry or part of it): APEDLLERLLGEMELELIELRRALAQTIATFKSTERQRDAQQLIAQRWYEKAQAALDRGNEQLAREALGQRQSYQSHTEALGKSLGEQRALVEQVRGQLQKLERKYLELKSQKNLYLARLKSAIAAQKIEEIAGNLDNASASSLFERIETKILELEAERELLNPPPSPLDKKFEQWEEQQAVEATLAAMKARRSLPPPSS
# [6] = target: T4, PspF(1–275) (EcoPspF) (Escherichia coli, UniProt P37344); assay: ATPase activity; type: biochemical; conditions: comparison ATPase
# T4 construct: residues 1-275, E. coli BL21 (DE3), pET50(b)-derived plasmid, Ni-NTA purified
# T4 sequence (P37344 1-275): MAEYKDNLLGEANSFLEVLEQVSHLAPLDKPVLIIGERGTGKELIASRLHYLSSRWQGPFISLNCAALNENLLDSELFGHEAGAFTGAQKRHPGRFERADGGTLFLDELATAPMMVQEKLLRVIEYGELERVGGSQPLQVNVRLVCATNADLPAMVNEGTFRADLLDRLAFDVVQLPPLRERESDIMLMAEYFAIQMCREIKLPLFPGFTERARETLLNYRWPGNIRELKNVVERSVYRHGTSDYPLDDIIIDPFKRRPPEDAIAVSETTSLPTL
# [7] = target: T1, PspA (SynPspA, PspA wild type, slr1188); assay: inhibition of ATPase activity; type: biochemical; conditions: high concentration needed; against ATP hydrolysis; non-hydrolysable analogue; remark: listed apart in the source
# T1 sequence (P74717 entry or part of it): as the sequence (P74717 entry or part of it R44K/E126Q/E179Q) above, with K44R, Q126E, Q179E counted along it
smiles,measurement,setting,value
Nc1ncnc2c1ncn2[C@@H]1O[C@H](COP(=O)(O)OP(=O)(O)O)[C@@H](O)[C@H]1O [ADP],cryo-EM structure of helical rods,[1],Models of PspA apo (PDB:7ABK) and PspA+ATP with an ADP model fitted
Nc1ncnc2c1ncn2[C@@H]1O[C@H](COP(=O)(O)OP(=O)(O)CP(=O)(O)O)[C@@H](O)[C@H]1O [AMPPCP],ATPase activity vs AMPPCP concentration,[2],could be decreased by high concentrations of ATPase inhibitors such as ATPγS or AMPPCP
Nc1ncnc2c1ncn2[C@@H]1O[C@H](COP(=O)(O)OP(=O)(O)OP(=O)(O)O)[C@@H](O)[C@H]1O [ATP],bound nucleotide by HPLC-MS/MS after washing; malachite-green ATPase,[3],R44K/E126Q/E179Q mutant was still capable of ATP binding and hydrolysis
same,malachite-green phosphate release; ADP-Glo; bound nucleotide by HPLC-MS/MS,[4],PspA can bind and hydrolyze ATP
same,malachite-green phosphate release; ADP-Glo,[5],did not significantly reduce the ATPase activity
same,ATPase activity,[6],"approximately ten times lower than bona fide AAA+ ATPases, such as E. coli PspF"
Nc1ncnc2c1ncn2[C@@H]1O[C@H](COP(=O)(O)OP(=O)(O)OP(O)(O)=S)[C@@H](O)[C@H]1O [ATPγS],ATPase activity vs ATPγS concentration,[7],could be decreased by high concentrations of ATPase inhibitors such as ATPγS or AMPPCP
